Assay results from patent US11952368B2, “FAPI dimer compound, FAPI dimer-based positron emission tomography (PET) imaging agent for tumor diagnosis, and preparation method and use thereof” (XIAMEN UNIVERSITY, priority 2021, dated 2024).

System: FAP-expressing CAFs
Assay: Cellular uptake and cellular uptake blockade in CAFs
Format: cell-based, human
Procedure: A human HCC cell line Huh7 was purchased from the National Experimental Cell Resource Sharing Platform, China. CAFs were extracted from a surgical specimen of an HCC patient.
After the CAFs were verified as cells with high FAP expression, the next experiment was conducted. […]
FAP-expressing CAFs were inoculated in a 24-well plate and cultivated with a 10% (volume fraction) FBS-containing 1640 medium for 48 h before the experiment until a cell density was about 80% to 90%; the medium was changed to an FBS-free 1640 medium; and the ^68Ga-2PEG(3)-FAPI-dimer, ^68Ga-FAPI-46, or ^68Ga-2PEG(3)-FAPI-dimer+11.3 nmol FAPI-46 (for the blocking experiment) was added to the 24-well plate and incubated, with predetermined intervals of 10 min, 30 min, 60 min, 90 min, and 120 min. […] A half-inhibitory concentration (IC50s) was calculated by using GraphPad Prism to fit data through nonlinear regression. […]

SMILES: CN(CCCN1CCN(C(=O)COCCOCCOCCNC(=O)CCC(=O)N[C@@H](CCCCNC(=O)CN2CCN(CC(=O)[O-])CCN(CC(=O)[O-])CCN(CC(=O)[O-])CC2)C(=O)NCCOCCOCCOCC(=O)N2CCN(CCCN(C)c3ccc4nccc(C(=O)NCC(=O)N5CC(F)(F)C[C@H]5C#N)c4c3)CC2)CC1)c1ccc2nccc(C(=O)NCC(=O)N3CC(F)(F)C[C@H]3C#N)c2c1.[68Ga+3] [^68Ga-2PEG(3)-FAPI-dimer]
- cell uptake blockade: binding to FAP blocked by FAPI-46 precursor (+11.3 nmol FAPI-46): can significantly block
- absorption value relative to ^68Ga-FAPI-46 monomer in CAFs (incubation 10 min to 120 min): about twice
